Data: patent publication US6242425A, “Quinolinone glycoside, production process, and anti-allergic agent” (Dainippon Ink and Chemicals, Inc., priority 1998, dated 2001)

Columns and labels:
[1] = system: homologous passive cutaneous anaphylaxis (PCA) reaction in rats; experiment: Effect on homologous passive cutaneous anaphylaxis (PCA) reaction in rats; assay type: in vivo, rat (male wistar rats); details: vs vehicle control
Method: Effect on homologous passive cutaneous anaphylaxis (PCA) reaction in rats
This experimental animal model is caused by immediate type allergic reaction, namely, antigen-antibody reaction. In the following, the method of this pharmacological test will be explained.
Method: Male wistar rats (9 weeks old) were intradermally administered 0.05 ml of anti-serum against dinitrophenylated ascaris (DNP-As) into two sites on the shaved dorsal skin. 48 hours later, glycosyloxyquinolinone derivatives (test compounds) suspended in 0.5% methylcellulose (MC) were given i.v. at a dose of 0.5 mg/kg to the animals. 1 hour after administration of Test compounds, the animals were induced anaphylaxis by injection of saline (1 ml) dissolving 1 mg of trinitrophenylated ascaris (TNP-As) and 5 mg of Evans Blue into the tail vein of the animals. 30 minutes after induction of anaphylaxis, animals were anesthetized by ether and killed by bleeding, and were flayed dorsal skin. The leakage of dye was assessed by measuring the diameter (mean of shortest and longest diameter) of the blue spot on the inside surface of dorsal skin. As vehicle control group, only 0.5% MC solution was administered orally, and as positive control group, Tranilast suspended in 0.5% MC were administered orally at a dose of 100 mg/kg to the animals with the same method as the test compounds groups. Each experimental group consisted of 5 rats.
In the conditions of this experiment, it was considered that the compound, which inhibited PCA reaction by over forty (40) percent against that in vehicle control group, was evidently effective for immediate type allergy.
(§1) Inhibition (%)=(A-B)/A×100
A: leakage of dye in vehicle control group
B: leakage of dye in test compound group or positive control group

[2] = system: immediate type asthmatic response; experiment: Effect on experimental immediate type asthma model in guinea pigs (airway resistance); assay type: in vivo, guinea pig (male hartley guinea pigs); details: airway resistance 1 minute after challenge
Excerpt: (§2) Effect on experimental immediate and delayed type asthma model in guinea pigs
(§3) The asthma is typical allergic disease and we carried out this pharmacological test by experimental asthmatic model in guinea pigs in order to confirm that the compounds of the present invention, compound 14, 16, 20, 26 and 32, suppress immediate and delayed type asthmatic response. In the following, the method of the pharmacological test will be explained.
(§4) Method: Male hartley guinea pigs were sensitized by exposured aerosolized ovalbumine (OVA) (1% in saline) for 10 minutes per a day at eight times. The aerosol was generated by an ultrasonic nebulizer (NE-U12, Omron inc.). One week after final sensitization, the animals were challenged with inhalation of OVA (2% in saline) for 5 minutes. The animals were pretreated with metyrapone (10 mg/kg, i.v.) at 1 and 4 hours before the challenge, and pyrilamine (10 mg/kg, i.p.) at 30 minutes before the challenge. airway resistance in the conscious animals were measured for 1 minute with PULMOS-1 (made in Medical Interface Project Station Inc.) at 1 minute, 2, 4, 5, 6, 7, 8 and 23 to 24 hours after the challenge. Compound 14, 16, 20, 26 and 32 (test compound) suspended in 0.5% methylcellulose (MC) solution were given i.v. at doses of 0.2 and 0.5 mg/kg 1 hour before and 3 hours after the challenge. As a positive control group, Prednisolone was given orally at a dose of 10 mg/kg 2 hours and 16 hours before the challenge. As vehicle control group, only 0.5% MC solution was given orally.
(§5) The evaluation of the effect of the compounds on immediate and delayed type asthmatic response was undertaken with percentage of change in airway resistance 1 minute after the challenge and the area under the response curve for percentage of change in airway resistance between 4 and 8 hours after the challenge, respectively.
(§6) The inhibition (%) of the compounds for immediate and delayed type asthmatic response was calculated according to equation 2 and the result was shown in table 2. Each experimental group consisted of 8 guinea pigs.
as §1
(§7) A: percentage of change in airway resistance in vehicle control group
(§8) B: percentage of change in airway resistance in test compound group or positive control group

[3] = system: delayed type asthmatic response; experiment: Effect on experimental delayed type asthma model in guinea pigs (airway resistance); assay type: in vivo, guinea pig (male hartley guinea pigs); details: AUC of airway resistance change 4-8 hours after challenge
Excerpt: as §2, §3, §4, §5, §6, §1, §7, §8

[4] = 0.5 mg/kg i.v., 1 hour before challenge
[5] = 0.2 mg/kg i.v., 1 hour before and 3 hours after challenge
[6] = 0.5 mg/kg i.v., 1 hour before and 3 hours after challenge
[7] = positive control, 10 mg/kg orally, 2 and 16 hours before challenge

CCCCCCCCOc1c(O[C@H]2O[C@H](CO)[C@@H](O)[C@H](O)[C@@H]2O)c2ccc(NC(=O)/C=C/c3cc(OC)c(O)c(OC)c3)cc2n(C)c1=O [Compound 34, 7-(3,5-dimethoxy-4-hydroxycinnamoyl)amino-3-octyloxy-4-(α-D-mannopyranosyloxy)-1-methyl-2(1H)-quinolinone]
inhibition (%) of PCA reaction [1, 4]: 42%

CCCCCCCCOc1c(O[C@@H]2O[C@H](CO)[C@H](O)[C@H](O)[C@H]2O)c2ccc(NC(=O)/C=C/c3cc(OC)c(O[C@@H]4O[C@H](CO)[C@H](O)[C@H](O)[C@H]4O)c(OC)c3)cc2n(C)c1=O [Compound 26, 7-[3,5-dimethoxy-4-(β-D-galactopyranosyloxy)cinnamoyl]amino-3-octyloxy-4-(β-D-galactopyranosyloxy)-1-methyl-2(1H)-quinolinone]
inhibition (%) of PCA reaction [1, 4]: 50% | immediate type asthma inhibition % [2, 5]: 25% | immediate type asthma inhibition % [2, 6]: 37% | delayed type asthma inhibition (%) [3, 5]: 52% | delayed type asthma inhibition (%) [3, 6]: 63%

CCCCCCCCOc1c(O[C@@H]2O[C@H](C(=O)O)[C@@H](O)[C@H](O)[C@H]2O)c2ccc(NC(=O)/C=C/c3cc(OC)c(O[C@@H]4O[C@H](C(=O)O)[C@@H](O)[C@H](O)[C@H]4O)c(OC)c3)cc2n(C)c1=O [Compound 14]
inhibition (%) of PCA reaction [1, 4]: 54% | immediate type asthma inhibition % [2, 5]: 29% | immediate type asthma inhibition % [2, 6]: 37% | delayed type asthma inhibition (%) [3, 5]: 64% | delayed type asthma inhibition (%) [3, 6]: 73%

COc1ccc(/C=C/C(=O)Nc2ccccc2C(=O)O)cc1OC [Tranilast, reference compound]
inhibition (%) of PCA reaction ([1]; positive control, 100 mg/kg orally): 52%

CCCCCCCCOc1c(O[C@H]2O[C@H](CO)[C@@H](O)[C@H](O)[C@@H]2O)c2ccc(NC(=O)/C=C/c3cc(OC)c(O[C@H]4O[C@H](CO)[C@@H](O)[C@H](O)[C@@H]4O)c(OC)c3)cc2n(C)c1=O [Compound 32, 7-[3,5-dimethoxy-4-(α-D-mannopyranosyloxy)cinnamoyl]amino-3-octyloxy-4-(α-D-mannopyranosyloxy)-1-methyl-2(1H)-quinolinone]
inhibition (%) of PCA reaction [1, 4]: 45% | immediate type asthma inhibition % [2, 5]: 26% | immediate type asthma inhibition % [2, 6]: 34% | delayed type asthma inhibition (%) [3, 5]: 49% | delayed type asthma inhibition (%) [3, 6]: 57%

CCCCCCCCOc1c(O[C@@H]2O[C@H](CO)[C@@H](O)[C@H](O)[C@H]2O)c2ccc(NC(=O)/C=C/c3cc(OC)c(O[C@@H]4O[C@H](CO)[C@@H](O)[C@H](O)[C@H]4O)c(OC)c3)cc2n(C)c1=O [Compound 20, 7-[3,5-dimethoxy-4-(β-D-glucopyranosyloxy)cinnamoyl]amino-3-octyloxy-4-(β-D-glucopyranosyloxy)-1-methyl-2(1H)-quinolinone]
inhibition (%) of PCA reaction [1, 4]: 49% | immediate type asthma inhibition % [2, 5]: 27% | immediate type asthma inhibition % [2, 6]: 38% | delayed type asthma inhibition (%) [3, 5]: 57% | delayed type asthma inhibition (%) [3, 6]: 61%

CCCCCCCCOc1c(O[C@@H]2O[C@H](CO)[C@H](O)[C@H](O)[C@H]2O)c2ccc(NC(=O)/C=C/c3cc(OC)c(O)c(OC)c3)cc2n(C)c1=O [Compound 28, 7-(3,5-dimethoxy-4-hydroxycinnamoyl)amino-3-octyloxy-4-(β-D-galactopyranosyloxy)-1-methyl-2(1H)-quinolinone]
inhibition (%) of PCA reaction [1, 4]: 43%

CCCCCCCCOc1c(O)c2ccc(NC(=O)/C=C/c3cc(OC)c(O[C@@H]4O[C@H](C(=O)O)[C@@H](O)[C@H](O)[C@H]4O)c(OC)c3)cc2n(C)c1=O [Compound 15, 7-[3,5-dimethoxy-4-(β-D-glucuropyranosyloxy)cinnamoyl]amino-3-octyloxy-4-hydroxy-1-methyl-2(1H)-quinolinone]
inhibition (%) of PCA reaction [1, 4]: 42%

CCCCCCCCOc1c(O[C@@H]2O[C@H](CO)[C@@H](O)[C@H](O)[C@H]2O)c2ccc(NC(=O)/C=C/c3cc(OC)c(O)c(OC)c3)cc2n(C)c1=O [Compound 22, 7-(3,5-dimethoxy-4-hydroxycinnamoyl)amino-3-octyloxy-4-(β-D-glucopyranosyloxy)-1-methyl-2(1H)-quinolinone]
inhibition (%) of PCA reaction [1, 4]: 42%

CCCCCCCCOc1c(O)c2ccc(NC(=O)/C=C/c3cc(OC)c(O[C@H]4O[C@H](CO)[C@@H](O)[C@H](O)[C@@H]4O)c(OC)c3)cc2n(C)c1=O [Compound 33, 7-[3,5-dimethoxy-4-(α-D-mannopyranosyloxy)cinnamoyl]amino-3-octyloxy-4-hydroxy-1-methyl-2(1H)-quinolinone]
inhibition (%) of PCA reaction [1, 4]: 40%

C[C@]12C=CC(=O)C=C1CC[C@@H]1[C@@H]2[C@@H](O)C[C@@]2(C)[C@H]1CC[C@]2(O)C(=O)CO [Prednisolone, reference compound]
immediate type asthma inhibition % [2, 7]: 27% | delayed type asthma inhibition (%) [3, 7]: 69%

CCCCCCCCOc1c(O[C@@H]2O[C@H](C(=O)O)[C@@H](O)[C@H](O)[C@H]2O)c2ccc(NC(=O)/C=C/c3cc(OC)c(O)c(OC)c3)cc2n(C)c1=O [Compound 16, 7-(3,5-dimethoxy-4-hydroxycinnamoyl)amino-3-octyloxy-4-(β-D-glcuropyranosyloxy)-1-methyl-2(1H)-quinolinone]
inhibition (%) of PCA reaction [1, 4]: 41% | immediate type asthma inhibition % [2, 5]: 22% | immediate type asthma inhibition % [2, 6]: 26% | delayed type asthma inhibition (%) [3, 5]: 42% | delayed type asthma inhibition (%) [3, 6]: 51%

CCCCCCCCOc1c(O)c2ccc(NC(=O)/C=C/c3cc(OC)c(O[C@@H]4O[C@H](CO)[C@H](O)[C@H](O)[C@H]4O)c(OC)c3)cc2n(C)c1=O [Compound 27, 7-[3,5-dimethoxy-4-(β-D-galactopyranosyloxy)cinnamoyl]amino-3-octyloxy-4-hydroxy-1-methyl-2(1H)-quinolinone]
inhibition (%) of PCA reaction [1, 4]: 46%

CCCCCCCCOc1c(O)c2ccc(NC(=O)/C=C/c3cc(OC)c(O[C@@H]4O[C@H](CO)[C@@H](O)[C@H](O)[C@H]4O)c(OC)c3)cc2n(C)c1=O [Compound 21, 7-[3,5-dimethoxy-4-(β-D-glucopyranosyloxy)cinnamoyl]amino-3-octyloxy-4-hydroxy-1-methyl-2(1H)-quinolinone]
inhibition (%) of PCA reaction [1, 4]: 46%
